Experimental data reported in US20030171393A1, “Drugs for sex dysfunctions” (priority 2000, published 2003).
Where a name gives a salt, the structure may show the parent alone.

What was measured:
[1] = system: cavernous body; assay: Relaxation in vitro of cavernous body tissue precontracted with phenylephrine; format: cell-based, White New Zealand rabbits; settings: for Cavernous body % relaxation: tissue precontracted with phenylephrine 10 μM; for Power ratio: ratio between myorelaxing effect on cavernous body and effect on aorta
Excerpt: (§1) The relaxing effect of the tested drugs on carvernous body tissues has been evaluated with experiments in vitro as a measure of the inhibiting action on the impotence, and on aorta tissues as expression of the undesired hypotensive effect.
(§2) White New Zealand rabbits were sacrificed, cavernous body and aorta specimens were taken and suitably prepared for the determination of the myorelaxing activity in vitro, according to the procedure described by J. Jeremy (Br. J. Urology 79,958-63,1997).
(§3) The tissues were precontracted with phenylephrine (10 μM) and the relaxation was determined in the presence of the compounds object of the invention.
(§4) The 2-(acetyloxy)benzoic acid 6-(nitroxy methyl)-2-methylpyridyl ester hydrochloride (NCX 4050) is prepared as described in patent application PCT/EP 00/01454 (Ex. 1) , the sildenafil nitrate has been prepared as described in patent application WO 99/67231 (Ex. 3). The products used in the experiment were dissolved in dimethylsulphoxide, except sodium nitroprussiate which was dissolved in distilled water.

[2] = system: aorta; assay: Relaxation in vitro of aorta tissue precontracted with phenylephrine (undesired hypotensive effect); format: cell-based, White New Zealand rabbits; settings: tissue precontracted with phenylephrine 10 μM
Excerpt: as §1, §2, §3, §4

[3] = system: aorta tissues pretreated with sodium nitroprussiate; assay: Aorta relaxation in vitro in the presence of the NO-donor sodium nitroprussiate; format: cell-based, white New Zealand rabbits; settings: 10^−7 M; for Aorta relaxation: strips first treated with sodium nitroprussiate 10^−7 M, percentage with respect to the initial sodium nitroprussiate treatment
Method: The experiment was carried out as described in the previous Example, by using aorta tissues taken from white New Zealand rabbits.

Compound | Cavernous body % relaxation ([1]; concentration 3 × 10^-5 M) [%] | Aorta % ([2]; concentration 3 × 10^-5 M) [%] | Aorta relaxation [3] [%] | Cavernous body % relaxation ([1]; concentration 10^-6 M) [%] | Power ratio ([1]; concentration 10^-6 M) | Power ratio ([1]; concentration 10^-6 M, listed as sildenafil nitrate) | Aorta % ([2]; concentration 10^-6 M) [%] | Strengthening of the relaxing effect induced by sodium nitroprussiate (hypotensive effect), in words ([3]; aorta strips pretreated with sodium nitroprussiate 10^−7 M)
CCCc1nn(C)c2c(=O)[nH]c(-c3cc(S(=O)(=O)N4CCN(C)CC4)ccc3OCC)nc12 [Sildenafil Citrate, sildenafil citrate, reference compound] | 50 | 75 | 170 | – | – | – | – | –
sildenafil nitrate | – | – | 120 | 100 | 5 | clearly in favour of the myorelaxing effect | 20 | lower strengthening of the relaxing effect induced by sodium nitroprussiate compared with the sildenafil citrate
CC(=O)Oc1ccccc1C(=O)Oc1ccc(CO[N+](=O)[O-])nc1C.Cl [NCX 4050, 2-(acetyloxy)benzoic acid 6-(nitroxymethyl)-2-methylpyridyl ester hydrochloride] | – | – | – | 80 | 1 | – | 80 | –
